Reference: patent US9951366B2, “Cell-free protein synthesis method and device using a eukaryotic cell lysate in the presence of a caspase inhibitor and the use of a caspase inhibitor for increasing the yield and/or the stability of the synthesized proteins in such a method” (Fraunhofer-Gesellschaft zur Foerderung der angewandten …, priority 2013, dated 2018)
Peptide text beside a SMILES is read from it. * marks the point of attachment. Cbz = O=C(OCc1ccccc1)*; CH2F = FC*

Experiments:
[1] = tested on: cell-free eukaryotic translation system on the basis of a cell extract from Spodoptera frugiperda (Sf21) insect cells; assay: Cell-free expression of Mel-Hb-EGF-eYFP, protein quantity in translation mixture and vesicular fraction; type: biochemical
Experimental: The three proteins were each expressed in the batch and dialysis systems without (−) and with (+) the addition of the caspase inhibitor (CI) in the presence of ^14C-leucine for 48 h (27° C.; 600 rpm, Eppendorf Thermomixer Comfort) and analyzed as in example 1. […] The expression of each of the three membrane proteins (ETB, 49.3 kDa; Hb-EGF, 51 kDa; bacteriorhodopsin, 26.9 kDa) was able to be increased in the dialysis system (comparison of the dialysis batches +CI and −CI) with the addition of the caspase inhibitor by approximately 100% (FIG. 2).
Here, the intention was to investigate whether the increase in the total protein quantity is also associated with an increase in the quantity of membrane protein translocated and integrated into the lipid layer of the vesicles. For this purpose, the translation mixtures of Mel-Hg-EGF-eYFP were separated by means of a centrifuging step into the supernatant fluid (SN) and the vesicular fraction (VF). Aliquots (5 μl) of these samples were used for determining the quantity of de novo synthesized protein or were investigated with regard to their fluorescence properties (FIG. 4).
FIG. 4A: The synthesis of Mel-Hb-EGF-eYFP was carried out in the batch (left) and dialysis system (right) in the absence (−) and in the presence (+) of DTT with the addition of the caspase inhibitor (Z-VAD-FMK) over 48 h at 27° C. and 600 rpm. Following the synthesis, the mixtures were separated by means of a centrifuging step into the supernatant fluid (SN) and the vesicular fraction (VF). For analysis of the fluorescence intensity of the samples, aliquots of the fractions (5 μl) were each diluted in 25 μl PBS and 25 μl of this mixture was pipetted to each cavity of the Ibidi slide and measured. Excitation of the samples was carried out at 488 nm with a phosphorimager (Typhoon TRIO+ Imager, GE Healthcare) and the emission measured at 526 nm.

[2] = tested on: cell-free eukaryotic translation system on the basis of a cell extract from Spodoptera frugiperda (Sf21) insect cells; assay: Cell-free synthesis of SII-eYFP, protein yield by 14C-leucine incorporation (hot TCA precipitation, scintillation); type: biochemical; details: −V, +CI
Experimental: The influence of the caspase inhibitor on the maximum achievable protein yield was initially investigated on the basis of the expression of the cytosolic protein SII-eYFP. This model protein is the enhanced yellow fluorescent protein (eYFP) which was fused at the N-terminus with an affinity tag (Strep-Tag, SII-Tag) and was present in the vector pIX3.0 (Qiagen). The expression of the model protein was analyzed in the batch system and the dialysis system (50 μl reaction chamber; 1000 μl feeding chamber; cut-off of the membrane=10 kDa) over a period of 48 h. The translation mixtures were each incubated in the batch system and the dialysis system with (+) and without (−) insect cell vesicles (V) and with (+) and without (−) caspase inhibitor (CI) (at 27° C. and 600 rpm). The protein synthesis was carried out in the presence of the radioactively labeled amino acid ^14C-leucine in order to be able to determine the quantity of de novo synthesized target protein by means of hot TCA precipitation and scintillation measurement. The translation reactions were interrupted at particular time points (0 h, 2 h, 4 h, 24 h and 48 h) and analyzed as follows: 5 μl of the mixture was precipitated in hot TCA or ice-cold acetone in each case. A further 5 μl was resuspended in 25 μl PBS. The remaining sample volume was separated by means of a centrifuging step into the supernatant fluid (SN) and the vesicular fraction (VF). Aliquots of 5 μl of these fractions were diluted in 25 μl PBS each. Following the TCA precipitation, the samples were separated from free radioactive amino acids via a vacuum-driven filtration system and underwent a scintillation measurement. After drying, the proteins precipitated in acetone were collected in a reducing sample buffer and separated electrophoretically.

[3] = tested on: Mel-hEGFR-eYFP in Sf21 insect cell lysates; assay: Stability of de novo synthesized Mel-hEGFR-eYFP in batch mode (SDS-PAGE, autoradiography); type: biochemical, Spodoptera frugiperda; details: inhibitor 30 μM
Excerpt: The positive influence of the caspase inhibitor on the stability of cell-free synthesized proteins is shown here on the basis of the expression of the EGF receptor, the protein being a human, high molecular weight transmembrane protein (Epidermal Growth Factor Receptor) with intrinsic tyrosine kinase activity. The coding sequence of the EGF receptor was fused N-terminally with a melittin signal sequence (Mel) and C-terminally with yellow fluorescent protein (eYFP) and cloned into the vector pIX3.0 (Qiagen). The model protein is denoted below as Mel-hEGFR-eYFP (=163 kDa). The melittin signal sequence enables translocation of the membrane protein into the microsomes of the eukaryotic cell extract and subsequently embedding into the membrane of the microsomes. Mel-hEGFR-eYFP has nine potential N-glycosylation sites and therefore, due to the translocation of the target protein, N-glycosylation of the target protein is also enabled in the cell-free system. […] The translation reaction was carried out in the absence and the presence of a caspase inhibitor (Z-VAD-FMK, Promega, 30 μM) and a protease inhibitor mixture (“Complete Protease Inhibitor Cocktail”, Roche), respectively, and stopped at the indicated incubation times (1.5 h, 5 h and 24 h) by freezing the translation reaction in liquid nitrogen. […]

COC(=O)C[C@H](NC(=O)[C@H](C)NC(=O)[C@@H](NC(=O)OCc1ccccc1)C(C)C)C(=O)CF [Z-VAD-FMK, benzyloxycarbonyl-Val-Ala-Asp-[O-methyl]-fluoromethylketone] (Cbz-Val-Ala-Asp(OMe)-CH2F)
total protein quantity of Mel-Hb-EGF-eYFP ([1]; batch 48 h +CI): 12.1 µg/mL
Mel-Hb-EGF-eYFP in the vesicular fraction of the lysate ([1]; batch 48 h −DTT +CI): 6.5 µg/mL
total protein quantity of Mel-Hb-EGF-eYFP ([1]; dialysis 48 h +CI): 47.6 µg/mL
increase in total protein quantity of Mel-Hb-EGF-eYFP ([1]; dialysis 48 h +CI vs batch 48 h +CI): 300%
increase in total protein quantity of Mel-Hb-EGF-eYFP ([1]; dialysis 48 h +CI vs dialysis 48 h −CI): 130%
Mel-Hb-EGF-eYFP in the vesicular fraction of the lysate ([1]; dialysis 48 h −DTT +CI): 31.4 µg/mL
protein yield of SII-eYFP ([2]; batch system after 48 h): 17.3 µg/mL
protein yield of SII-eYFP ([2]; dialysis system after 48 h): 90.8 µg/mL
increase of the maximum protein yield of SII-eYFP ([2]; dialysis system vs batch system, 48 h): approximately 400%
Mel-hEGFR-eYFP integrity in the autoradiograph ([3]; after 24 h incubation time): detectable in an intact form
proteolytic decomposition of Mel-hEGFR-eYFP (autoradiograph) ([3]; compared with no inhibitor, 5 h): reduced signs of a proteolytic decomposition
